# From patent publication US11787762B2, “Tetralin and tetrahydroquinoline compounds as inhibitors of HIF-2alpha” (ARCUS BIOSCIENCES, INC., priority 2020, dated 2023)
# Biological target: T1, HIF-2α (Homo sapiens, UniProt Q99814)
# T1 construct: host or cells: 786-O cells stably transduced with Cignal Lenti HIF Luc Reporter (only the reporter was introduced, not HIF-2α)
# Test: HIF-2α luciferase reporter assay in HIF-Luc-786-O cells
# Format: cell-based
# Conditions: Table 3, 20 hours incubation
# Description: Generation of HIF-2α Luciferase 786-O Cell Line:
# Stable cell lines were generated by transducing 786-O cells (ATCC, CRL-1932) with Cignal Lenti HIF Luc Reporter lentivirus (CLS-007 L, Qiagen) according to the manufacturer's guidelines. In brief, 0.3×10^6 786-0 cells were transduced with lentivirus at a Multiplicity of Infection (MOI) of 25 for 24 hours. After transduction, cells were replenished with fresh RPMI 1640 Medium (Cat. No. 11875085, Thermo Fisher,) supplemented with 10% FBS (Cat. No. A3160502, Gibco), 2 mM GlutaMax (Cat. No. 35050-061, Invitrogen) and 100 units of penicillin and 100 μg of streptomycin/mL (Cat. No 15070063, Thermo Fisher) for another 24 hours. Antibiotic selection was performed in cell media containing 4 μg/mL of Puromycin. After 7 days of antibiotic selection, stable pools of surviving cells were expanded and used in a luciferase reporter assay.
# HIF-2α Luciferase Reporter Assay:
# On day one, 20 uL of HIF-Luc-786-0 cells in OptiMem (Cat. No. 31985088, Thermo Fisher) were seeded into each well of a 384 well white opaque plate (Corning 3570) and incubated at 37° C. and 5% CO2. Twenty microliters of 2× test compounds in OptiMem were added to cells after 4 hours of incubation. Final assay conditions comprised 20,000 cells per well in 1% DMSO with test compound concentrations ranging from 50 uM to 0 uM. After 20 hours incubation at 37° C. and 5% CO2, luciferase activity was determined using ONE-Glo Luciferase Assay Reagent (E6110, Promega) following the manufacture's recommended procedure. Briefly, 40 uL of ONE-Glo luciferase reagents were added to each well and luciferase signals were measured using an Envision 2102 Multilabel Reader. Percentage maximum activity in each test well was calculated based on DMSO (maximum activity) and no cell control wells (baseline activity). The IC50 values of the test compounds were determined from compound dose response curves fitted using a standard four parameter fit equation.
# T1 sequence (Q99814 whole entry): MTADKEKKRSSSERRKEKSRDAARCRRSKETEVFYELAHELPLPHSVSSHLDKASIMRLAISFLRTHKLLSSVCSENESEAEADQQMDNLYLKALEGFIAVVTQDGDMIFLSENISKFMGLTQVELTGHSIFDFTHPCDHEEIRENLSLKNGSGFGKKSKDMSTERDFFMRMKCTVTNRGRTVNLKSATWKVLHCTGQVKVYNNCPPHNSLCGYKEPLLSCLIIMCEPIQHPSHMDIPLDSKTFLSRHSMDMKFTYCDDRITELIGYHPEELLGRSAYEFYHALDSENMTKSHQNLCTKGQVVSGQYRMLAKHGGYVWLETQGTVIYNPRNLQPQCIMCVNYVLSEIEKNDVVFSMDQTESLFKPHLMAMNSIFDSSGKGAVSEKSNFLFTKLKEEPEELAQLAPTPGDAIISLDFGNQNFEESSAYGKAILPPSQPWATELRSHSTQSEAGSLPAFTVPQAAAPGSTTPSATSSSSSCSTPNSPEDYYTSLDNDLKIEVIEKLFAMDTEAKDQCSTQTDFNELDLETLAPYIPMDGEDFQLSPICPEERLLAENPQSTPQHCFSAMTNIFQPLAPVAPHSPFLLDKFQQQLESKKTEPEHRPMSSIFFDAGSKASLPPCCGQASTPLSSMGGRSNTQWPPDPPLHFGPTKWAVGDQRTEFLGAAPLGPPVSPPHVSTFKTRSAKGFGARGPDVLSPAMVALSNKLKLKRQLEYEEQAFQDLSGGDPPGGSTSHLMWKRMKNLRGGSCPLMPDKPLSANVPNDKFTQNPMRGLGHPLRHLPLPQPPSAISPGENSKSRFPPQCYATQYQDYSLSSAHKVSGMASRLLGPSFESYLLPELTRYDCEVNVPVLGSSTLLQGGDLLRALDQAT
row,IC50 [nM],Structure (SMILES)
1,< 100,"Cc1nc(N)ccc1-c1c(F)cc([C@H]2CC[C@H](F)c3cc(F)cc(C#N)c32)c2c1[C@H](O)C(F)(F)C2 [Example 203, (5S,8R)-8-[(1S)-7-(6-amino-2-methylpyridin-3-yl)-2,2,6-trifluoro-1-hydroxy-1,3-dihydroinden-4-yl]-3,5-difluoro-5,6,7,8-tetrahydronaphthalene-1-carbonitrile]"
2,< 100,"N#Cc1ccc(-c2c(F)cc([C@H]3CC[C@H](F)c4cc(F)cc(C#N)c43)c3c2[C@H](O)C(F)(F)C3)c(N)c1 [Example 204, (5S,8R)-8-[(1S)-7-(2-amino-4-cyanophenyl)-2,2,6-trifluoro-1-hydroxy-2,3-dihydro-1H-inden-4-yl]-3,5-difluoro-5,6,7,8-tetrahydronaphthalene-1-carbonitrile]"
3,< 100,"Cc1ncc(-c2c(F)cc([C@H]3CC[C@H](F)c4cc(F)cc(C#N)c43)c3c2[C@H](O)C(F)(F)C3)c(N)n1 [Example 205, (5S,8R)-8-[(1S)-7-(4-amino-2-methylpyrimidin-5-yl)-2,2,6-trifluoro-1-hydroxy-2,3-dihydro-1H-inden-4-yl]-3,5-difluoro-5,6,7,8-tetrahydronaphthalene-1-carbonitrile]"
4,< 100,"Cc1nc(C#N)ncc1-c1c(F)cc([C@H]2CC[C@H](F)c3cc(F)cc(C#N)c32)c2c1[C@H](O)C(F)(F)C2 [Example 206, 5-[(3S)-7-[(1R,4S)-8-cyano-4,6-difluoro-1,2,3,4-tetrahydronaphthalen-1-yl]-2,2,5-trifluoro-3-hydroxy-2,3-dihydro-1H-inden-4-yl]-4-methylpyrimidine-2-carbonitrile]"
5,< 100,"N#Cc1cc(F)cc2c1[C@@H](c1cc(F)c(Cl)c3c1CC(F)(F)[C@H]3O)CC[C@@H]2F [Example 207, (5S,8R)-8-[(1S)-7-chloro-2,2,6-trifluoro-1-hydroxy-1,3-dihydroinden-4-yl]-3,5-difluoro-5,6,7,8-tetrahydronaphthalene-1-carbonitrile]"
6,< 100,"Cn1cncc1-c1c(F)cc([C@H]2C[C@H](F)[C@H](F)c3cc(F)cc(C#N)c32)c2c1[C@H](O)C(F)(F)C2 [Example 208, (5R,6S)-3,5,6-trifluoro-8-[(1S)-2,2,6-trifluoro-1-hydroxy-7-(1-methyl-1H-imidazol-5-yl)-2,3-dihydro-1H-inden-4-yl]-5,6,7,8-tetrahydronaphthalene-1-carbonitrile]"
7,< 100,"Cc1c(-c2c(F)cc([C@H]3C[C@H](F)[C@H](F)c4cc(F)cc(C#N)c43)c3c2[C@H](O)C(F)(F)C3)cnn1C [Example 209, (5R,6S)-8-[(1S)-7-(1,5-dimethyl-1H-pyrazol-4-yl)-2,2,6-trifluoro-1-hydroxy-2,3-dihydro-1H-inden-4-yl]-3,5,6-trifluoro-5,6,7,8-tetrahydronaphthalene-1-carbonitrile]"
8,< 100,"Cn1nccc1-c1c(F)cc([C@H]2CC[C@H](F)c3cc(F)cc(C#N)c32)c2c1[C@H](O)[C@H](F)C2 [Example 210, (5S,8R)-8-[(1S,2R)-2,6-difluoro-1-hydroxy-7-(2-methylpyrazol-3-yl)-2,3-dihydro-1H-inden-4-yl]-3,5-difluoro-5,6,7,8-tetrahydronaphthalene-1-carbonitrile]"
9,< 100,"CS(=O)(=O)c1c(F)cc([C@H]2CC[C@H](F)c3cc(F)cc(C#N)c32)c2c1[C@H](O)[C@H](F)C2 [Example 211, (5S,8R)-8-[(1S,2R)-2,6-Difluoro-1-hydroxy-7-methylsulfonyl-2,3-dihydro-1H-inden-4-yl]-3,5-difluoro-5,6,7,8-tetrahydronaphthalene-1-carbonitrile]"
10,< 100,"CS(=O)(=O)c1c(N)cc([C@H]2CC[C@H](F)c3cc(F)cc(C#N)c32)c2c1[C@H](O)[C@H](F)C2 [Example 212, (5S,8R)-8-[(1S,2R)-6-amino-2-fluoro-1-hydroxy-7-methylsulfonyl-2,3-dihydro-1H-inden-4-yl]-3,5-difluoro-5,6,7,8-tetrahydronaphthalene-1-carbonitrile]"
11,100 to 1000,"CS(=O)(=O)c1c(C#N)cc([C@H]2CC[C@H](F)c3cc(F)cc(C#N)c32)c2c1[C@H](O)[C@H](F)C2 [Example 214, (5S,8R)-8-[(1S,2R)-6-Cyano-2-fluoro-1-hydroxy-7-methylsulfonyl-2,3-dihydro-1H-inden-4-yl]-3,5-difluoro-5,6,7,8-tetrahydronaphthalene-1-carbonitrile]"
12,< 100,"Cc1nc(N)ccc1-c1ccc([C@H]2C[C@H](F)[C@H](F)c3cc(F)cc(C#N)c32)c2c1[C@H](O)C(F)(F)C2 [Example 216, (5R,6S,8R)-8-[(1S)-7-(6-amino-2-methylpyridin-3-yl)-2,2-difluoro-1-hydroxy-2,3-dihydro-1H-inden-4-yl]-3,5,6-trifluoro-5,6,7,8-tetrahydronaphthalene-1-carbonitrile]"
13,< 100,"Cn1nccc1-c1ccc([C@H]2C[C@H](F)[C@H](F)c3cc(F)cc(C#N)c32)c2c1[C@H](O)C(F)(F)C2 [Example 217, (5R,6S,8R)-8-[(1S)-2,2-difluoro-1-hydroxy-7-(1-methyl-1H-pyrazol-5-yl)-2,3-dihydro-1H-inden-4-yl]-3,5,6-trifluoro-5,6,7,8-tetrahydronaphthalene-1-carbonitrile]"
14,< 100,"Cn1nncc1-c1ccc([C@H]2C[C@H](F)[C@H](F)c3cc(F)cc(C#N)c32)c2c1[C@H](O)C(F)(F)C2 [Example 218, (5R,6S,8R)-8-[(1S)-2,2-difluoro-1-hydroxy-7-(1-methyl-1H-1,2,3-triazol-5-yl)-2,3-dihydro-1H-inden-4-yl]-3,5,6-trifluoro-5,6,7,8-tetrahydronaphthalene-1-carbonitrile]"
15,< 100,"N#Cc1cc(F)cc2c1[C@@H](c1ccc(Cl)c3c1CC(F)(F)[C@H]3O)C[C@H](F)[C@@H]2F [Example 219, (5R,6S,8R)-8-[(1S)-7-chloro-2,2-difluoro-1-hydroxy-2,3-dihydro-1H-inden-4-yl]-3,5,6-trifluoro-5,6,7,8-tetrahydronaphthalene-1-carbonitrile]"
16,< 100,"Cc1nc(C#N)ncc1-c1ccc([C@H]2C[C@H](F)[C@H](F)c3cc(F)cc(C#N)c32)c2c1[C@H](O)C(F)(F)C2 [Example 220, 5-[(3S)-7-[(1R,3S,4R)-8-cyano-3,4,6-trifluoro-1,2,3,4-tetrahydronaphthalen-1-yl]-2,2-difluoro-3-hydroxy-2,3-dihydro-1H-inden-4-yl]-4-methylpyrimidine-2-carbonitrile]"
17,< 100,"Cc1ncc(-c2ccc([C@H]3C[C@H](F)[C@H](F)c4cc(F)cc(C#N)c43)c3c2[C@H](O)C(F)(F)C3)c(N)n1 [Example 221, (5R,6S,8R)-8-[(1S)-7-(4-amino-2-methylpyrimidin-5-yl)-2,2-difluoro-1-hydroxy-2,3-dihydro-1H-inden-4-yl]-3,5,6-trifluoro-5,6,7,8-tetrahydronaphthalene-1-carbonitrile]"
18,< 100,"N#Cc1cc(F)cc2c1[C@@H](c1ccc(Cl)c3c1C[C@@H](F)[C@H]3O)CC[C@@H]2F [Example 222, (5S,8R)-8-[(1S,2R)-7-chloro-2-fluoro-1-hydroxy-2,3-dihydro-1H-inden-4-yl]-3,5-difluoro-5,6,7,8-tetrahydronaphthalene-1-carbonitrile]"
19,100 to 1000,"N#Cc1cc(F)cc2c1[C@@H](c1ccc(C(=O)O)c3c1CC(F)(F)[C@H]3O)CC[C@@H]2F [Example 223, (3S)-7-[(1R,4S)-8-cyano-4,6-difluoro-1,2,3,4-tetrahydronaphthalen-1-yl]-2,2-difluoro-3-hydroxy-1,3-dihydroindene-4-carboxylic acid]"
20,100 to 1000,"CN(C)C(=O)c1ccc([C@H]2CC[C@H](F)c3cc(F)cc(C#N)c32)c2c1[C@H](O)C(F)(F)C2 [Example 224, (3S)-7-[(1R,4S)-8-cyano-4,6-difluoro-1,2,3,4-tetrahydronaphthalen-1-yl]-2,2-difluoro-3-hydroxy-N,N-dimethyl-1,3-dihydroindene-4-carboxamide]"
21,< 100,"Cc1ccc([C@H]2CC[C@H](F)c3cc(F)cc(C#N)c32)c2c1[C@H](O)C(F)(F)C2 [Example 225, (5S,8R)-8-[(1S)-2,2-difluoro-1-hydroxy-7-methyl-1,3-dihydroinden-4-yl]-3,5-difluoro-5,6,7,8-tetrahydronaphthalene-1-carbonitrile]"
22,< 100,"CC(C)(O)c1ccc([C@H]2CC[C@H](F)c3cc(F)cc(C#N)c32)c2c1[C@H](O)C(F)(F)C2 [Example 226, (5S,8R)-8-[(1S)-2,2-difluoro-1-hydroxy-7-(2-hydroxypropan-2-yl)-1,3-dihydroinden-4-yl]-3,5-difluoro-5,6,7,8-tetrahydronaphthalene-1-carbonitrile]"
